# Experimental data as given in publication PMC3702004, “Comparison of Intake and Systemic Relative Effect Potencies of Dioxin-like Compounds in Female Mice after a Single Oral Dose” (Environmental Health Perspectives, 2013).
# How the values were obtained:
# [1] = Compound analysis: liver, adipose and plasma concentrations 3 days after a single oral dose; assay type: in vivo, female C57BL/6 mice; conditions: for liver:adipose ratio (hepatic sequestration criterion 0.3) / tissue uptake / Adipose % dose / g tissue / Liver % dose / g tissue / Plasma % dose / g tissue: 3 days after single oral dose; for liver:adipose ratio (hepatic sequestration criterion 0.3): Table 1 doses; for Liver:adipose ratio: based on ng/g tissue, day 3; for tissue uptake: female, C57BL/6, mouse, in vivo
# Protocol: (§1) Animals. Eight-week-old female C57BL/6 mice (Harlan laboratories, Venray, the Netherlands) were randomly assigned to treatment groups (six animals per group) and allowed to acclimate for 1.5 weeks. The animals were housed in groups in standard cages and conditions (23 ± 2°C, 50–60% relative humidity, 12-hr dark/light cycle) with free access to food and water. Mice received a single dose of test compound by oral gavage at a dosing volume of 10 mL/kg body weight (BW). Mice treated with corn oil vehicle (10 mL/kg BW) served as controls. For each congener, five different doses were administered, ranging from 0.5–100 μg/kg BW (TCDD) to 5,000–500,000 µg/kg BW (PCB-153). Detailed information on doses is provided in Supplemental Material, Table S1 (http://dx.doi.org/10.1289/ehp.1206336). On day 3 after dosing, animals were euthanized by CO2/O2 asphyxiation, and blood was immediately collected from the abdominal aorta. The liver, thymus, spleen, and adipose tissue were removed, weighed (liver, thymus, and spleen), snap frozen, and stored at –80°C. All animal treatments were performed with permission of the Animal Ethical Committee (DEC Utrecht) and performed according to the [Law on Animal Experiments (1977)]. Animals were treated humanely and with regard for alleviation of suffering.
# (§2) Compound analysis. Adipose and liver tissues samples were homogenized in Na2SO4, followed by extraction and clean-up in one step, and then eluted with 200 mL 1:1 hexane:dichloromethane on an open column packed with 40% wt/wt H2SO4-impregnated silica and KOH-silica. Blood plasma samples were extracted on an open column using Chem-Elut (Agilent Technologies, Santa Clara, CA, USA) and then NaCl eluted with 75 mL 3:2 hexane:2-propanol. Clean-up was performed using a miniaturized silica column (as described above), and samples were eluted using 30 mL hexane. Because the samples typically contained high levels of the analytes, only a small fraction was evaporated and analyzed. Prior to evaporation, we spiked a fraction of the samples with ^13C-labeled standards. We checked potential loss of analytes during extraction and clean-up by reextracting the samples using the identical protocol used for the samples. […] Tetradecane was added prior to evaporation. Sample analysis followed the U.S. Environmental Protection Agency Method 1613 ([U.S. Environmental Protection Agency 1994]) using single ion monitoring mode on an Agilent 6809N gas chromatograph (Agilent Technologies) coupled with a Micromass Ultima Autospec Ultra high-resolution mass spectrometer (HRMS; Waters Corp., Milford, MA, USA). Compounds were separated on a 60 m × 0.25 mm DB5-MS column ([…]; J&W Scientific, Folsom, CA, USA). The HRMS was operated with electron impact ionization with electron energy of 35 eV and an ion source temperature of 250°C. To reduce the number of analyses, samples were pooled before clean-up. […] This method was used because full congener–specific separation could be achieved on the high-resolution GC–HRMS. For lipid determination, samples were evaporated to dryness after the extraction step, and the amount of lipids was determined gravimetrically. Concentrations were calculated based on lipid weight and wet weight. The analysis of samples for the PCB-118 5,000 μg/kg BW dose failed during the procedure; thus analysis for this group could not be completed.
# Plasma and PBL isolation. Blood from two mice was pooled (total volume of approximately 1.4 mL); plasma and PBLs were then isolated using Ficoll Paque gradient (GE Healthcare Europe, Diegem, Belgium). Plasma samples were stored at –80°C until compound analysis. Isolated lymphocytes were lysed with RLT buffer (QIAGEN, Venlo, the Netherlands) as described in the QIAGEN RNAeasy kit protocol and stored at –80°C until use.
# [2] = Body and organ weight, hepatic lipid content; assay type: in vivo, female C57BL/6 mice; conditions: day 3; for % lipid / g liver: pooled liver samples
# Protocol: as §1, §2
# Statistical analysis. Statistical significant differences of the means and variances were determined using one-way analysis of variance (ANOVA) followed by Tukey-Kramer multiple comparisons. Differences were considered statistically significant at p < 0.05. Statistical calculations were performed using GraphPad 6.01 (GraphPad Software Inc.).
compound,measurement,setting,value
"Clc1cc(Cl)c(-c2cc(Cl)c(Cl)cc2Cl)cc1Cl [PCB-153, 2,2´,4,4´,5,5´-hexachlorobiphenyl]",liver:adipose ratio (hepatic sequestration criterion 0.3),[1],< 0.3
same,Liver:adipose ratio,"[1]; dose 5,000 μg/kg BW",0.08±0.02
same,Liver:adipose ratio,"[1]; dose 15,000 μg/kg BW",0.11±0.02
same,Liver:adipose ratio,"[1]; dose 50,000 μg/kg BW",0.08±0.03
same,tissue uptake,[1]; oral dose 5000 µg/kg bw,0.075 %ID/g
same,Adipose % dose / g tissue,[1]; oral dose 5000 µg/kg bw,23 % dose / g tissue
same,Liver % dose / g tissue,[1]; oral dose 5000 µg/kg bw,1.8 % dose / g tissue
same,Adipose % dose / g tissue,[1]; oral dose 15000 µg/kg bw,25 % dose / g tissue
same,Liver % dose / g tissue,[1]; oral dose 15000 µg/kg bw,2.5 % dose / g tissue
same,Plasma % dose / g tissue,[1]; oral dose 15000 µg/kg bw,0.052 % dose / g tissue
same,Adipose % dose / g tissue,[1]; oral dose 50000 µg/kg bw,25 % dose / g tissue
same,Liver % dose / g tissue,[1]; oral dose 50000 µg/kg bw,2.0 % dose / g tissue
same,Plasma % dose / g tissue,[1]; oral dose 50000 µg/kg bw,0.060 % dose / g tissue
same,Plasma % dose / g tissue,[1]; oral dose 150000 µg/kg bw,0.050 % dose / g tissue
same,Plasma % dose / g tissue,[1]; oral dose 500000 µg/kg bw,0.042 % dose / g tissue
same,Body weight,[2]; oral dose 5000 µg/kg bw,18.8 ± 1.1 gram
same,Liver weight,[2]; oral dose 5000 µg/kg bw,4.71 ± 0.34 % of bw
same,Spleen weight,[2]; oral dose 5000 µg/kg bw,0.30 ± 0.04 % of bw
same,Thymus weight,[2]; oral dose 5000 µg/kg bw,0.25 ± 0.05 % of bw
same,% lipid / g liver,[2]; oral dose 5000 µg/kg bw,3.3%
same,Body weight,[2]; oral dose 15000 µg/kg bw,19.1 ± 0.5 gram
same,Liver weight,[2]; oral dose 15000 µg/kg bw,4.96 ± 0.10 % of bw
same,Spleen weight,[2]; oral dose 15000 µg/kg bw,0.36 ± 0.04 % of bw
same,Thymus weight,[2]; oral dose 15000 µg/kg bw,0.26 ± 0.04 % of bw
same,% lipid / g liver,[2]; oral dose 15000 µg/kg bw,3.9%
same,Body weight,[2]; oral dose 50000 µg/kg bw,19.6 ± 0.8 gram
same,Liver weight,[2]; oral dose 50000 µg/kg bw,5.15 ± 0.38 % of bw
same,Spleen weight,[2]; oral dose 50000 µg/kg bw,0.33 ± 0.04 % of bw
same,Thymus weight,[2]; oral dose 50000 µg/kg bw,0.29 ± 0.03 % of bw
same,% lipid / g liver,[2]; oral dose 50000 µg/kg bw,3.4%
same,Body weight,[2]; oral dose 150000 µg/kg bw,19.9 ± 1.1 gram
same,Liver weight,[2]; oral dose 150000 µg/kg bw,5.47 ± 0.37 % of bw
same,Spleen weight,[2]; oral dose 150000 µg/kg bw,0.34 ± 0.05 % of bw
same,Thymus weight,[2]; oral dose 150000 µg/kg bw,0.25 ± 0.04 % of bw
same,Body weight,[2]; oral dose 500000 µg/kg bw,18.8 ± 0.7 gram
same,Liver weight,[2]; oral dose 500000 µg/kg bw,5.80 ± 0.30 % of bw
same,Spleen weight,[2]; oral dose 500000 µg/kg bw,0.33 ± 0.05 % of bw
same,Thymus weight,[2]; oral dose 500000 µg/kg bw,0.24 ± 0.04 % of bw
same,Dose with significant increase in liver weight vs vehicle controls,[2]; single oral dose,"≥ 500,000 µg/kg BW"
same,Dose with statistically significant decrease in relative thymus weight vs vehicle controls,[2]; single oral dose,"500,000 μg/kg BW"
"Clc1ccc(-c2cc(Cl)c(Cl)c(Cl)c2Cl)cc1Cl [PCB-156, 2,3,3´,4,4´,5-hexachlorobiphenyl]",liver:adipose ratio (hepatic sequestration criterion 0.3),[1],< 0.3
same,Liver:adipose ratio,"[1]; dose 5,000 μg/kg BW",0.09±0.02
same,Liver:adipose ratio,"[1]; dose 15,000 μg/kg BW",0.11±0.03
same,Liver:adipose ratio,"[1]; dose 50,000 μg/kg BW",0.12±0.02
same,tissue uptake,[1]; oral dose 5000 µg/kg bw,0.079 %ID/g
same,Adipose % dose / g tissue,[1]; oral dose 5000 µg/kg bw,25 % dose / g tissue
same,Liver % dose / g tissue,[1]; oral dose 5000 µg/kg bw,2.2 % dose / g tissue
same,Adipose % dose / g tissue,[1]; oral dose 15000 µg/kg bw,22 % dose / g tissue
same,Liver % dose / g tissue,[1]; oral dose 15000 µg/kg bw,2.3 % dose / g tissue
same,Plasma % dose / g tissue,[1]; oral dose 15000 µg/kg bw,0.061 % dose / g tissue
same,Adipose % dose / g tissue,[1]; oral dose 50000 µg/kg bw,34 % dose / g tissue
same,Liver % dose / g tissue,[1]; oral dose 50000 µg/kg bw,4.1 % dose / g tissue
same,Plasma % dose / g tissue,[1]; oral dose 50000 µg/kg bw,0.066 % dose / g tissue
same,Liver % dose / g tissue,[1]; oral dose 150000 µg/kg bw,3.0 % dose / g tissue
same,Plasma % dose / g tissue,[1]; oral dose 150000 µg/kg bw,0.045 % dose / g tissue
same,Plasma % dose / g tissue,[1]; oral dose 500000 µg/kg bw,0.037 % dose / g tissue
same,Body weight,[2]; oral dose 5000 µg/kg bw,17.7 ± 0.7 gram
same,Liver weight,[2]; oral dose 5000 µg/kg bw,4.71 ± 0.43 % of bw
same,Spleen weight,[2]; oral dose 5000 µg/kg bw,0.27 ± 0.03 % of bw
same,Thymus weight,[2]; oral dose 5000 µg/kg bw,0.21 ± 0.05 % of bw
same,% lipid / g liver,[2]; oral dose 5000 µg/kg bw,3.0%
same,Body weight,[2]; oral dose 15000 µg/kg bw,18.7 ± 1.3 gram
same,Liver weight,[2]; oral dose 15000 µg/kg bw,5.14 ± 0.41 % of bw
same,Spleen weight,[2]; oral dose 15000 µg/kg bw,0.30 ± 0.03 % of bw
same,Thymus weight,[2]; oral dose 15000 µg/kg bw,0.23 ± 0.04 % of bw
same,% lipid / g liver,[2]; oral dose 15000 µg/kg bw,3.3%
same,Body weight,[2]; oral dose 50000 µg/kg bw,18.0 ± 0.9 gram
same,Liver weight,[2]; oral dose 50000 µg/kg bw,5.96 ± 0.62 % of bw
same,Spleen weight,[2]; oral dose 50000 µg/kg bw,0.31 ± 0.04 % of bw
same,Thymus weight,[2]; oral dose 50000 µg/kg bw,0.25 ± 0.02 % of bw
same,% lipid / g liver,[2]; oral dose 50000 µg/kg bw,5.7%
same,Body weight,[2]; oral dose 150000 µg/kg bw,19.2 ± 1.1 gram
same,Liver weight,[2]; oral dose 150000 µg/kg bw,6.79 ± 0.51 % of bw
same,Spleen weight,[2]; oral dose 150000 µg/kg bw,0.29 ± 0.02 % of bw
same,Thymus weight,[2]; oral dose 150000 µg/kg bw,0.21 ± 0.04 % of bw
same,% lipid / g liver,[2]; oral dose 150000 µg/kg bw,6.8%
same,Body weight,[2]; oral dose 500000 µg/kg bw,18.7 ± 0.6 gram
same,Liver weight,[2]; oral dose 500000 µg/kg bw,8.10 ± 0.17 % of bw
same,Spleen weight,[2]; oral dose 500000 µg/kg bw,0.33 ± 0.03 % of bw
same,Thymus weight,[2]; oral dose 500000 µg/kg bw,0.18 ± 0.05 % of bw
same,Dose with significant increase in liver weight vs vehicle controls,[2]; single oral dose,"≥ 50,000 µg/kg BW"
